Assay results taken from PubChem BioAssay (NCI).
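At the GI50, growth is halved. TGI marks complete inhibition of growth.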

Columns and labels:
Experiment in all cases: NCI tumour cell line growth inhibition, 384-well format; in the data active = GI50 below about 0.43 µM; inactive = the rest
[1] = system: UACC-62 melanoma
[2] = system: SK-OV-3 ovarian
[3] = system: OVCAR-3 ovarian
[4] = system: A498 renal
[5] = system: NCI-H226 lung
[6] = system: BT-549 breast
[7] = system: MDA-MB-468 breast
[8] = system: U251 glioblastoma
[9] = system: MDA-MB-435 melanoma
[10] = system: PC-3 prostate
[11] = system: OVCAR-5 ovarian
[12] = system: SK-MEL-5 melanoma
[13] = system: HCT-15 colon
[14] = system: NCI/ADR-RES ovarian
[15] = system: M14 melanoma
[16] = system: KM12 colon
[17] = system: HL-60(TB) leukemia
[18] = system: SF-268 CNS
[19] = system: CAKI-1 renal
[20] = system: NCI-H322M lung
[21] = system: T-47D breast
[22] = system: EKVX NSCLC
[23] = system: SNB-19 CNS
[24] = system: HS 578T breast
[25] = system: 786-0 renal
[26] = system: SK-MEL-2 melanoma
[27] = system: IGROV1 ovarian
[28] = system: SF-295 CNS
[29] = system: SW-620 colon
[30] = system: SK-MEL-28 melanoma
[31] = system: COLO 205 colon
[32] = system: ACHN renal
[33] = system: UO-31 renal
[34] = system: HCT-116 colon
[35] = system: DU-145 prostate
[36] = system: HOP-92 NSCLC
[37] = system: RPMI-8226 leukemia
[38] = system: MALME-3M melanoma
[39] = system: SN12C renal
[40] = system: NCI-H23 lung
[41] = system: RXF 393 renal
[42] = system: MOLT-4 leukemia
[43] = system: A549 NSCLC
[44] = system: SF-539 CNS
[45] = system: MCF7 breast
[46] = system: LOX IMVI melanoma
[47] = system: OVCAR-8 ovarian

Cc1cc(F)c(C(=O)Nc2cccc(-c3nncn3C(C)C)n2)cc1-n1cnc(C2CC2)c1
30.6 µM: TGI [16]
12.4 µM: TGI [31]
30 µM: TGI [9]
> 80.5 µM: TGI [11]
22.1 µM: TGI [22]
45.3 µM: TGI [13]
25.2 µM: TGI [41]
16.8 µM: TGI [40]
28.7 µM: TGI [15]
98.9 µM: TGI [28]
14.6 µM: TGI [21]
47.7 µM: TGI [18]
30.2 µM: TGI [10]
42.6 µM: TGI [44]
18.3 µM: TGI [17]
23.7 µM: TGI [33]
66.6 µM: TGI [43]
> 100 µM: TGI [23]
inactive: GI50 [1] 12.9 µM | GI50 [2] 17.4 µM | GI50 [3] 14.7 µM | GI50 [4] 10.1 µM | GI50 [5] 12.6 µM | GI50 [6] 11.2 µM | GI50 [7] 3.39 µM | GI50 [8] 11.9 µM | GI50 [9] 13.2 µM | GI50 [10] 15.5 µM | GI50 [11] 23.9 µM | GI50 [12] 6.96 µM | GI50 [13] 17.6 µM | GI50 [14] 11.1 µM | GI50 [15] 14.5 µM | GI50 [16] 15.6 µM | GI50 [17] 6.26 µM | GI50 [18] 15 µM | GI50 [19] 12.6 µM | GI50 [20] 18.8 µM | GI50 [21] 3.42 µM | GI50 [22] 5.8 µM | GI50 [23] 22.6 µM | GI50 [24] 8.3 µM | GI50 [25] 15 µM | GI50 [26] 19.9 µM | GI50 [27] 9.78 µM | GI50 [28] 15.4 µM | GI50 [29] 13.9 µM | GI50 [30] 17.8 µM | GI50 [31] 3.83 µM | GI50 [32] 11.5 µM | GI50 [33] 10.4 µM | GI50 [34] 17.6 µM | GI50 [35] 6.87 µM | GI50 [36] 17.7 µM | GI50 [37] 2.09 µM | GI50 [38] 15.2 µM | GI50 [39] 19.4 µM | GI50 [40] 4.62 µM | GI50 [41] 10.3 µM | GI50 [42] 5.69 µM | GI50 [43] 8.05 µM | GI50 [44] 14.5 µM | GI50 [45] 12.3 µM | GI50 [46] 13.7 µM | GI50 [47] 12 µM
> 82.9 µM: TGI [36]
18.1 µM: TGI [42]
> 81.6 µM: TGI [8]
23.6 µM: TGI [6] | TGI [14]
28.9 µM: TGI [46]
38.6 µM: TGI [2]
27.8 µM: TGI [35]
40.5 µM: TGI [27]
34.8 µM: TGI [32]
44.6 µM: TGI [20]
41.1 µM: TGI [3]
25.9 µM: TGI [1] | TGI [45]
35.5 µM: TGI [26]
35 µM: TGI [30] | TGI [38]
32.3 µM: TGI [29]
71.1 µM: TGI [34]
31.4 µM: TGI [5] | TGI [19]
10.5 µM: TGI [7]
> 93.6 µM: TGI [39]
25.6 µM: TGI [47]
40.4 µM: TGI [25]
35.2 µM: TGI [24]
19.3 µM: TGI [12]
5.9 µM: TGI [37]
> 76.6 µM: TGI [4]

C[C@@H](Nc1nc(N[C@H](C)C(F)(F)F)nc(-c2cccc(Cl)n2)n1)C(F)(F)F
58.8 µM: TGI [41]
> 80.9 µM: TGI [10]
> 76.9 µM: TGI [1]
> 76.3 µM: TGI [25]
> 90.2 µM: TGI [7]
> 89.7 µM: TGI [40]
> 72.4 µM: TGI [4]
inactive: GI50 [1] 38.6 µM | GI50 [2] > 100 µM | GI50 [3] 28.8 µM | GI50 [4] 32.9 µM | GI50 [5] 84.7 µM | GI50 [6] 32.5 µM | GI50 [7] 20.9 µM | GI50 [8] 40 µM | GI50 [9] > 77.9 µM | GI50 [10] > 51.1 µM | GI50 [11] > 100 µM | GI50 [12] 28.2 µM | GI50 [13] > 100 µM | GI50 [14] > 82.3 µM | GI50 [15] > 100 µM | GI50 [16] > 91.7 µM | GI50 [17] > 85.3 µM | GI50 [18] 39.6 µM | GI50 [19] 33.6 µM | GI50 [20] > 100 µM | GI50 [21] > 84.3 µM | GI50 [22] > 100 µM | GI50 [23] > 82.4 µM | GI50 [24] 21.1 µM | GI50 [25] 33.2 µM | GI50 [26] 14.6 µM | GI50 [27] > 100 µM | GI50 [28] > 83.8 µM | GI50 [29] > 49.5 µM | GI50 [30] > 100 µM | GI50 [31] > 100 µM | GI50 [32] > 100 µM | GI50 [33] > 100 µM | GI50 [34] 89.3 µM | GI50 [35] 34.1 µM | GI50 [36] 43 µM | GI50 [37] > 75.8 µM | GI50 [38] > 66 µM | GI50 [39] > 62.6 µM | GI50 [40] > 49.9 µM | GI50 [41] 24.2 µM | GI50 [42] > 100 µM | GI50 [43] > 51.8 µM | GI50 [44] > 69.1 µM | GI50 [45] 14.5 µM | GI50 [46] > 100 µM | GI50 [47] 47.2 µM
> 73.8 µM: TGI [19]
> 100 µM: TGI [2] | TGI [3] | TGI [5] | TGI [8] | TGI [9] | TGI [11] | TGI [12] | TGI [13] | TGI [14] | TGI [15] | TGI [16] | TGI [17] | TGI [18] | TGI [20] | TGI [21] | TGI [22] | TGI [23] | TGI [27] | TGI [28] | TGI [30] | TGI [31] | TGI [32] | TGI [33] | TGI [34] | TGI [35] | TGI [36] | TGI [37] | TGI [38] | TGI [39] | TGI [42] | TGI [44] | TGI [45] | TGI [46] | TGI [47]
63.2 µM: TGI [24]
> 70.6 µM: TGI [29]
30.2 µM: TGI [26]
> 70.3 µM: TGI [6]
> 83 µM: TGI [43]
